Values quoted from earlier work as cited in patent US20080003262A1, “COMPOSITIONS AND THERAPEUTIC METHODS OF USE” (DrugTech Corporation, priority 2006, published 2008).

Tested on: DIV
Settings: intravaginal 2% clindamycin cream or 10% hydrocortisone

C[C@]12CCC(=O)C=C1CC[C@@H]1[C@@H]2[C@@H](O)C[C@@]2(C)[C@H]1CC[C@]2(O)C(=O)CO [hydrocortisone]
Response of DIV to treatment: responds
